Measured values reported in US20250332290A1, “PSMA-TARGETING LIGANDS FOR MULTIMODAL APPLICATIONS” (STICHTING RADBOUD UNIVERSITAIR MEDISCH CENTRUM, priority 2021, published 2025).
Values joined by “and” are separate entries in the source; they are usually repeats but may differ in a detail not shown here. Identical values can stand only once.

What was measured:
PSMA (LS174T-PSMA cells) [1] = biological target: T1, PSMA (LS174T-PSMA cells) (Homo sapiens, UniProt Q04609); assay: Binding and internalization assay with 111In-labelled ligands on PSMA-expressing LS174T-PSMA cells; type: cell-based; settings: for Average binding %, Internalized / Average binding %, Membrane bound / Average binding %, Total: 111In-labelled, 50,000 cpm, 2 h at 37° C., LS174T-PSMA cells
T1 construct: expressed in transfected cells
T1 sequence (Q04609 whole entry): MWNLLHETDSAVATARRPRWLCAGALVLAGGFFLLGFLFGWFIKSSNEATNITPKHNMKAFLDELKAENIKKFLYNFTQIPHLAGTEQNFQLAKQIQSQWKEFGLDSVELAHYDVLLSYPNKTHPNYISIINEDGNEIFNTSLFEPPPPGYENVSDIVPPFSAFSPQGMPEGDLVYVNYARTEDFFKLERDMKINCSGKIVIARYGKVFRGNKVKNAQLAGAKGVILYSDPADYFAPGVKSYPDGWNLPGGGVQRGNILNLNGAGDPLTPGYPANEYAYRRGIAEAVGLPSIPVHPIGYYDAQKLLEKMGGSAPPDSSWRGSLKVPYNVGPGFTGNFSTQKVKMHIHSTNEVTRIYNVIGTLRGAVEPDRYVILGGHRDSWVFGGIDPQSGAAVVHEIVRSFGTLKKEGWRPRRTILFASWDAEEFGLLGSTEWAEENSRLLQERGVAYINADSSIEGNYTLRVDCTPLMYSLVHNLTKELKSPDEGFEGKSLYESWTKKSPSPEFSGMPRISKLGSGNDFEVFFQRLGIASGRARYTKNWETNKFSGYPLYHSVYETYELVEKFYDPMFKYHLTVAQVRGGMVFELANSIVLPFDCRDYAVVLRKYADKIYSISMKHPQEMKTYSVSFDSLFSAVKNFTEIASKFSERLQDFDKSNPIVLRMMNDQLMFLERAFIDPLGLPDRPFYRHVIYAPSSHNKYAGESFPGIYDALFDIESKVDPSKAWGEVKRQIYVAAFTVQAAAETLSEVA
Method: Each labelled ligand (0.01 mL) was dissolved in PBS (0.5 mL) and diluted 1:10:100 in three tubes, resulting in tube 1 1×, tube 2 10× and tube 3 100× dilution. The tubes were measured by a gamma-counter to determine the counts per minute of known ligand concentrations. The calculated amounts of ligand were transferred from tubes 2 into new tubes and filled with binding buffer to total volume 0.5 mL. These solutions are needed for the binding and internalization assay.
Two days before the assay, four six-well plates were plated with 0.3-1.0 million PSMA-expressing LS174T-PSMA cells per well in culture medium (2 mL). On the day of the assay, the cells were washed with PBS. Binding buffer (0.5% BSA in RMPI 1640, 2 mL) and 50,000 counts per minute of radiolabelled PSMA-ligand (0.005 mL) were added from tubes prepared according to calculation with standards. Each ligand was examined in triplicate. The cells were incubated at 37° C. for 2 hours and after this the medium was removed. The cells were washed with ice-cold PBS and cooled to 0° C. After incubating the cells with acid buffer pH 2.6 (0.1M acetic acid, 0.15 M NaCl, 2 mL) for 10 minutes, the membrane-bound ligands were collected in tubes. The cells were washed with ice-cold PBS again and these fractions were collected as control. NaOH was added to the cells (0.1 M, 2 mL) for 10 minutes to lyse the cells and free the internalized ligands. The ^111In-radiocounts per minute of all fractions and standards were measured by a gamma-counter. From this, the ligand-PSMA binding percentages and internalization fraction were quantified.

PSMA (LS174T-PSMA cells) [2] = biological target: T1, PSMA (LS174T-PSMA cells); assay: Alternative internalization assay in LS174T-PSMA cells; type: cell-based; settings: 2 h at 37° C.
Method: Alternative internalization assay: binding and internalization characteristics of all ligands were compared using LS174T-PSMA and wildtype LS174T cells, cultured to confluency in 6-wells plates. Cells were incubated with 50,000 counts per minute (cpm) ^111In- or ^99mTc-labeled PSMA ligand (0.1-0.25 pmol/well) in 1 ml binding buffer (RPMI/0.5% BSA) for 2 h at 37° C. Nonspecific binding was determined by co-incubation with 2-(phosphonomethyl) pentane-1,5-dioic acid (2-PMPA, 21.57 µM). Cells were washed with PBS and incubated with acid buffer (0.1 M acetic acid, 154 mM NaCl, pH 2.6) for 10 minutes at 0° C. to retrieve the membrane-bound fraction. After this, the membrane-bound fraction was collected, cells were washed, lysed with 1.5 ml 0.1 M NaOH and cell lysis (intracellular activity) was collected. Membrane-bound activity and intracellular activity fractions were measured in a gamma-counter (2480 WIZARD^2 Automatic Gamma Counter, PerkinElmer) (6,42).

[3] = Lipophilicity, LogD of radiolabeled ligands in PBS (pH 7.4) / n-octanol; type: physicochemical; settings: radiolabeled ligand
Method: (§1) IC50: The 50% inhibitory concentration (IC50) of the ligands was determined using LS174T-PSMA cells in a competitive binding assay. The LS174T-PSMA cells were cultured to confluency in 6-wells plates, followed by incubation on ice for 2 h in 1 mL of binding buffer (RPMI/0.5% BSA) with 50,000 cpm of ^111In-labeled PSMA-617 and a series of increasing concentrations (0.01-300 nM) of unlabeled PSMA ligands. After incubation, cells were washed with 2 ml PBS and lysed with 1.5 ml 0.1 M NaOH. Cell lysis was collected from the plate and the cell-associated activity was measured in a gamma-counter and IC50 values were calculated using GraphPad Prism software version 5.03. Lipophilicity: LogD values of all radiolabeled ligands were determined by adding 300,000 cpm (0.6-1.5 pmol) to a mixture of 3 ml PBS (pH 7.4) and 3 ml n-octanol. Tubes were vortexed vigorously for 1 min and centrifuged for 5 min at 201×g. The concentration of radioactivity in a defined volume of each layer was measured in a well-type gamma-counter.

PSMA (LS174T-PSMA cells) [4] = biological target: T1, PSMA (LS174T-PSMA cells); assay: Competitive binding assay against 111In-labeled PSMA-617 using LS174T-PSMA cells; settings: on ice 2 h, 111In-labeled PSMA-617 as competitor, unlabeled ligand 0.01-300 nM
Method: as §1

| SMILES | Average binding %, Internalized (PSMA (LS174T-PSMA cells) [1]) | Average binding %, Membrane bound (PSMA (LS174T-PSMA cells) [1]) | Average binding %, Total (PSMA (LS174T-PSMA cells) [1]) | total binding to PSMA expressing cells relative to PSMA-617 (PSMA (LS174T-PSMA cells) [1]; ratio of total binding percentages) | Internalization Ratio (%) (PSMA (LS174T-PSMA cells) [2]) | LogD [3] | IC50 (PSMA (LS174T-PSMA cells) [4]) |
| --- | --- | --- | --- | --- | --- | --- | --- |
| O=C(O)CC[C@H](NC(=O)N[C@@H](CCCCNC(=O)[C@H](Cc1ccc2ccccc2c1)NC(=O)c1ccc(CNC(=O)[C@H](CCCCNC(=O)CN2CCN(CC(=O)O)CCN(CC(=O)O)CCN(CC(=O)O)CC2)NC(=O)[C@H](CCC(=O)O)NC(=O)c2ccccc2)cc1)C(=O)O)C(=O)O [Compound K9] | 9.06% | 9.87% | 18.9% and 18.93% | 2.6 times |  |  |  |
| CC1(C)C(=CC=C2CCCC(C=CC3=[N+](CCCCCC(=O)NCCCCC(NC(=O)CN4CCN(CC(=O)O)CCN(CC(=O)O)CCN(CC(=O)O)CC4)C(=O)NCCCCC(NC(=O)C(CCC(=O)O)NC(=O)c4cccnc4)C(=O)NCc4ccc(C(=O)NC(Cc5ccc6ccccc6c5)C(=O)NCCCCC(NC(=O)NC(CCC(=O)O)C(=O)O)C(=O)O)cc4)c4ccc(S(=O)(=O)O)cc4C3(C)C)=C2Oc2ccc(S(=O)(=O)O)cc2)N(CCCCS(=O)(=O)O)c2ccc(S(=O)(=O)O)cc21 (stereo not shown) [Compound K11] |  |  |  |  | 74.1 +/− 20.3% | −4.4 +/− 0.01 | 312 nM |
| CC(=O)SCC(=O)NCC(=O)NCC(=O)NCC(=O)NC(CCCCNC(=O)CCCCC[N+]1=C(C=CC2=C(Oc3ccc(S(=O)(=O)O)cc3)C(=CC=C3N(CCCCS(=O)(=O)O)c4ccc(S(=O)(=O)O)cc4C3(C)C)CCC2)C(C)(C)c2cc(S(=O)(=O)O)ccc21)C(=O)NCCCCC(NC(=O)C(CCC(=O)O)NC(=O)c1cccnc1)C(=O)NCc1ccc(C(=O)NC(Cc2ccc3ccccc3c2)C(=O)NCCCCC(NC(=O)NC(CCC(=O)O)C(=O)O)C(=O)O)cc1 (stereo not shown) [Compound K12] |  |  |  |  | 61.0 +/− 12.8% | −3.5 +/− 0.01 | 475 nM |
| CC1(C)C(/C=C/C2=C(Oc3ccc(S(=O)(=O)O)cc3)C(=C/C=C3/N(CCCCS(=O)(=O)O)c4ccc(S(=O)(=O)O)cc4C3(C)C)/CCC2)=[N+](CCCCCC(=O)NCCC(=O)N2Cc3ccccc3-c3c(cnn3CCCCC(NC(=O)CN3CCN(CC(=O)O)CCN(CC(=O)O)CCN(CC(=O)O)CC3)C(=O)NCCCC[C@H](NC(=O)[C@H](CCC(=O)O)NC(=O)c3cccnc3)C(=O)NCc3ccc(C(=O)N[C@@H](Cc4ccc5ccccc5c4)C(=O)NCCCC[C@H](NC(=O)N[C@@H](CCC(=O)O)C(=O)O)C(=O)O)cc3)-c3ccccc32)c2ccc(S(=O)(=O)O)cc21 (stereo partly shown) [Compound K13] |  |  |  |  | 80.6 +/− 11.6% | −3.2 +/− 0.16 | 184 nM |
| O=C(O)CC[C@H](NC(=O)N[C@@H](CCCCNC(=O)[C@H](Cc1ccc2ccccc2c1)NC(=O)[C@H]1CC[C@H](CNC(=O)CN2CCN(CC(=O)O)CCN(CC(=O)O)CCN(CC(=O)O)CC2)CC1)C(=O)O)C(=O)O [PSMA-617, reference compound] | 3.39% | 3.80% | 7.19% |  | 48.4 +/− 12.4% | −4.1 +/− 0.01 | 8.5 nM |
